Legend:
[1] = Uptake of pitavastatin and eltrombopag in cryopreserved human hepatocytes (oil spin method), comeasurement, micro‐rate constant mechanistic model; type: in vitro ADME; conditions: human; model 1; conditional mode (minimum‐maximum) for 1 × 10^6 cells
Method: (§1) Human hepatocytes were obtained from BioIVT (Brussels, Belgium; lot number: LYB; 10 donor LiverPool (8 Caucasians, 1 African American, and 1 Hispanic) and thawed according to supplier guidelines in Leibovitz L15 medium. Hepatocytes were kept on ice prior to use and were used within 3 hours of defrosting.
(§2) Cells were separated using an oil spin method similar to the literature. ^11 , ^17 After separation, the tubes were frozen on dry ice and the bottom layer was cut off.
(§3) A dilution factor of 100 was used to scale from pmol/mL/1 × 10^5 cells to nmol/mL/1 × 10^6 cells.
(§4) Passive rate constants for movement into and out of the cell (k f.X and k bX, respectively) as well as uptake transporter‐mediated rate constants for association to the transporter (k aX) and dissociation (k dX) and translocation (k tX) from the transporter into the medium and cell, respectively. […] The sets of ODEs for all the models (models 1–4; Table 1 ) tested for structural identifiability and used for parameter estimation are included in the Supplemental Material .
(§5) Parameter estimation was conducted within Monolix 2018 R2 (Lixoft, Antony, France) for each concentration and experiment as an individual data set, where to ensure positivity, a log‐normal distribution was assumed for each parameter, with a proportional residual error model for the observations.
(§6) Hepatocyte Incubations. […] Eltrombopag was dissolved in DMSO to give 30 µmol/mL, then diluted 333-fold to 90 nmol/mL in Leibovitz L15 medium. […] Briefly, 0.5 mL microtubes (12049877, Thermo-Fisher Scientific, Gothenburg, Sweden) layered with 15 µL of 4 % cesium chloride onto which 140 µL of 8:2 silicone oil: mineral oil, with oil red O was added. Samples were taken by transferring 100 µL of hepatocyte suspension into the microtube and spun for 15 s in a Minispin centrifuge (Eppendorf, Horsholm, Denmark), during which time the hepatocytes passed through the oil into the cesium chloride bottom layer. The tubes were then frozen on dry ice and the bottom layer cut off once frozen into a 1 mL deep well plate (260252, Thermo-Fisher Scientific, Gothenburg, Sweden).
(§7) Sample Extraction. 50 µL of water suitable for UPLC (MilliQ ELGA water, Merck-Millipore, Solna, Sweden) and 150 µL of stop solution (50:50 MeOH:MeCN, containing 0.8 % formic acid and 4 pmol/mL 5,5-diethyl-1,3-diphenyl-2-iminobarbituric acid as internal standard) were added to the frozen samples of the cut-off tube bottoms. Samples were mixed on a plate shaker for 1 h and then stored at – 80 °C overnight. Prior to analysis, samples were defrosted and mixed for 30 min before centrifugation of the plates at 4000 g for 20 min at 4 °C. Samples were transferred to a conical bottomed 96 well plate for analysis (249944, Thermo-Fisher Scientific, Gothenburg, Sweden) and diluted 1:1 with MilliQ ELGA water.
(§8) Mechanistic Modeling. […] An estimate for the total amount of transporters (To) can be obtained during the mechanistic modeling process (9, 10), and therefore Tf can be replaced using the conservation law during parameter estimation:
(§9) Parameter estimation for all model were conducted within the Monolix suite 2018 R2 (Lixoft, Antony, France) where to ensure positivity, a log-normal distribution was assumed for each parameter in the candidate models, together with a proportional residual error model for the observations.

human hepatocytes [2] = assay: as above; type: in vitro ADME
Method: as §1, §2, §3, §4, §5, §6, §7, §8, §9

[3] = Fraction unbound in hepatocytes, Rapid Equilibrium Dialysis (RED) device; type: in vitro ADME; conditions: human, heat inactivated hepatocytes
Method: Fraction Unbound in Hepatocytes. The estimation of the fraction unbound in hepatocytes at equilibrium can be obtained using multiple techniques: heat inactivated hepatocytes (3); linear regression obtained using the logD7.4 (4); parameter estimation (1, 3, 5, 6) or as separate binding rate constants determined experimentally (7). […] The RED device works with low volumes across a medium chamber (500 µL, white) and incubation chamber containing the hepatocytes (300 µL, red), and as such has been reported to even out the non-specific binding (NSB) between the membrane and wells, thereby improving recovery (8). The free fraction in the incubation (fu.inc) is calculated as:
fu.inc= [medium chamber] Whiteincubation chamber(Red) . (Eq.S1)
The amount of non-specific binding (NSB) to the labware is important to understand the recovery from the RED device experiment to evaluate the reliability of fu.inc: […]

[4] = Semimechanistic PBPK model simulation in simulated healthy volunteers; set-up: species or system human
Source text: Uptake is inhibited by the opposing drug in X 3 via the respective uptake concentration at half of the maximum uptake velocity (K m.up.X) shown as the inhibition constant (K I.up). Passive movement of drug into and out of the liver is through clearances P dif.X and P def.X, respectively. Both drugs are cleared through biliary excretion (CLbi.X) into the gallbladder (X 5), and into X 2 where they can be reabsorbed.
The micro‐rate constants for transporter‐mediated uptake and passive uptake were scaled to macro‐rate constants (see Table 2 ) and then empirically scaled up to the human body (83 kg, healthy adult; ^23 see Table 2 ).
The ODE PBPK model (see Figure 1 for schematic and Supplemental Material for the set of ODEs) was developed using desolve ^27 in R‐studio (v1.1.463, R‐Studio Inc., Boston, MA) running R‐project version 3.6.0 ^28 and was similar to that used for eltrombopag and rosuvastatin. ^5 All figures in this article were generated either within Inkscape (0.93, Inkscape.org, Boston, MA) or cowplot, ggplot2, ^29 , ^30 extrafont, ^31 and Cairo. ^32

[5] = Static R value for clinical TrDDI (FDA guidance); set-up: species or system human; conditions: for R value, static model: eltrombopag perpetrator (75 mg), pitavastatin victim, Eq. 2, FDA cut‐off 1.1
[6] = Plasma protein binding and blood:plasma ratio (literature); type: in vitro ADME; conditions: blood; fu.pl.P/Bl:Pl, Eq. 15, from literature values 3, 24
[7] = cited from earlier work
human hepatocytes [8] = conditions: cited from earlier work
OATP1B1 and OATP1B3 = conditions: OATP1B1 and OATP1B3, in vitro; cited from earlier work
[9] = model 1, conditional mode (minimum‐maximum) for 1 × 10^6 cells
[10] = model 1 micro‐rate constants, conditional mode (minimum‐maximum) for 1 × 10^6 cells
[11] = human hepatocytes over 70 seconds

SMILES: O=C(O)C[C@H](O)C[C@H](O)/C=C/c1c(C2CC2)nc2ccccc2c1-c1ccc(F)cc1 [pitavastatin, pitavastatin calcium]
- k el [1]: 0.00367 s⁻¹
- F T.X, fraction transported (human hepatocytes [2]; CLup.X/(CLup.X+Pdif.X), Eq. 4): 0.96 (0.94–0.98)
- effect of pitavastatin on cellular eltrombopag (human hepatocytes [2]; experimental data, except at a pitavastatin incubation of 30–100 nmol/mL): No effect
- K m.up.X or K I.up.X (human hepatocytes [2]; from micro‐rate constants, Eq. 7): 9,525 ng/mL
- P def.X (human hepatocytes [2]; k bX scaled to a clearance): 0.62 (0.55‐0.67) µL/min/1 × 10^6 cells
- P dif.X (human hepatocytes [2]; k fX scaled to a clearance): 0.55 (0.46–0.61) µL/min/1 × 10^6 cells
- k bX, passive rate constant out of the cell (human hepatocytes [2]; [9]): 0.21 (0.18–0.22) /min
- k fX, passive rate constant into the cell (human hepatocytes [2]; [9]): 5.5 × 10^−4 (4.6 × 10^−4–6.1 × 10^−4) /min
- k aX, transporter association rate constant (human hepatocytes [2]; [10]): 0.17 (0.14–0.25) /nmol/min
- k dX, transporter dissociation rate constant (human hepatocytes [2]; [10]): 2.2 (1.97–2.37) /min
- k tX, transporter translocation rate constant (human hepatocytes [2]; [10]): 1.65 (1.57–1.74) /min
- V max.up..X, maximum uptake velocity (human hepatocytes [2]; scaled to whole liver, Eq. 6): 3.0 × 10^7 ng/min/liver
- P dif.X, passive diffusion into the cell (human hepatocytes [2]; scaled to whole liver, Eq. 8): 118 mL/min/liver
- P def.X, passive diffusion out of the cell (human hepatocytes [2]; scaled to whole liver, Eq. 9): 104 mL/min/liver
- V max.up (human hepatocytes [2]; transporter rate constants transformed, Eq. 6): 302 (177–639) pmol/min/1 × 10^6 cells
- K m.up (human hepatocytes [2]; transporter rate constants transformed, Eq. 7): 22.1 (16.7–25.5) nmol/mL
- fraction unbound ([3]; RED device, overnight, pitavastatin 0.3, 10 and 100 nmol/ml, eltrombopag 30 nmol/ml, read-out: f u.inc, fraction unbound in the incubation): 0.9
- fraction unbound ([3]; pitavastatin, estimated from RED f u.inc, Eq. 16, read-out: f u.L.X, fraction unbound in the liver): 0.026
- recovery ([3]; RED device, read-out: analytical recovery): 55%
- CLmet.X, metabolic clearance ([4]; PBPK model value, Eqs. 10 and 11): 93 mL/min/liver
- CLbi.X, biliary clearance ([4]; PBPK model value, Eqs. 12 and 13): 165 mL/min/liver
- clearance ([4]; human, plasma and urine, PBPK model value, Eq. 14): 12 mL/min
- K a.X, first‐order absorption rate constant ([4]; pitavastatin, from mean residence time PO and IV, Eq. 5): 0.07 min⁻¹
- R value, static model [5]: 1.07
- R value, static model ([5]; listed as Pitavastatin): 1.06–1.07
- estimated I in.max ([5]; pitavastatin as perpetrator, clinical dose 1–4 mg): 0.5 to 3 nmol/mL
- fraction unbound [6]: 0.009
- biliary elimination of pitavastatin [7]: 53%
- AUC0−∞ (literature) ([7]; pitavastatin only, oral 1 mg, converted to blood concentration, mean ± SD): 68 ± 49 ng·h/mL
- Cmax ([7]; pitavastatin only, oral 1 mg, healthy volunteers, converted to blood concentration, mean ± SD): 38.8 ± 21.9 ng/mL
- tmax (h) ([7]; pitavastatin only, oral 1 mg, healthy volunteers): 1 (0.5–1) h
- V c.X, volume of the central compartment ([7]; pitavastatin, total blood volume): 5820. Total blood volume [ ^23 ] mL
- K m.up.P (literature) (human hepatocytes [8]): 1.4 to 2 nmol/mL
- P dif.P (literature) (human hepatocytes [8]): 0.4–13 µL/min/1 × 10^6 cells
- V max.up.P (literature) (human hepatocytes [8]): 65–354 pmol/min/1 × 10^6 cells
- k aP (literature) (human hepatocytes [8]; [11]): 7.4 (51%) /nmol/min/1 × 10^6 cells
- k dP (literature) (human hepatocytes [8]; [11]): 6.3 /min/1 × 10^6 cells
- k tP (literature) (human hepatocytes [8]; [11]): 4.3 (85%) /min/1 × 10^6 cells
- P def.P (literature, micro‐rate constants) (human hepatocytes [8]; ref Grandjean et al. 11): 0.89 (27%) µL/min/1 × 10^6 cells
- fraction transported (OATP1B1 and OATP1B3): 0.78

From PMC7179958 (CPT: Pharmacometrics & Systems Pharmacology, 2020)
